Measured values as given in article PMC12435366, “Maleic anhydride derived diphosphines: adaptable chelators for receptor-targeted ^99mTc, ^64Cu and ^188Re radiotracers” (Chemical Science, 2025).

Test system: LNCaP prostate cancer cells
Test: In vitro uptake of 99mTc tracers in LNCaP cells
Format: cell-based
Settings: co-incubation with PMPA, 1 h
Protocol: To compare the relative uptake and specificity of the new radiotracers for PSMA, [^99mTcO2(DP^Ph-PSMAt)2]^+, [^99mTcO2(DP^An-PSMAt)2]^+ and [^99mTcO2(DP^MEP-PSMAt)2]^+ (50 kBq) were purified from unreacted ^99mTc precursors and excess DP-PSMAt peptide, and each incubated with PSMA-expressing DU145-PSMA+ prostate cancer cells[33] or LNCaP prostate cancer cells (5 × 10^5 cells). After 1 h incubation, uptake of each radiotracer was quantified. […]
4.9 99mTc uptake in DU145, DU145-PSMA+ and LNCaP cells
The following experiment was performed in biological triplicate.
A panel of cell lines were selected that either expressed GCP(II)/PSMA (DU145-PSMA+ (genetically modified to express PSMA),12 and LNCaP (CRL‐1740)), or had low GCP(II)/PSMA expression (DU145 (HTB-81)). All cell lines were cultured in RPMI 1640 medium (R0883, Sigma) containing 10% foetal bovine serum, 2 mM L-glutamine, and 100 U mL−1 penicillin and 100 µg mL−1 streptomycin. Cells were maintained at 37 °C and 5% CO 2. Cells were seeded in 6-well plates at a density of 5 × 10^5 cells per well […]
in 2 mL complete media to achieve 70–80% confluency the following day. […] The cells were lysed with ice cold radioimmunoprecipitation assay buffer (RIPA buffer, 500 μL; 150 mM sodium chloride, 0.1% w/w sodium dodecyl sulfate (SDS), 0.5% w/w sodium deoxycholate (NaDOC), 1% w/w Triton-X) and samples were collected for radioactivity counting. […]

Row | Structure (SMILES) | blocking of cell uptake by PSMA inhibitor PMPA
1 | COc1ccc(P(/C(C(=O)O)=C(/C(=O)NCCOCCOCCOCCOCCC(=O)NCCCC[C@H](NC(=O)N[C@@H](CCC(=O)O)C(=O)O)C(=O)O)P(c2ccc(OC)cc2)c2ccc(OC)cc2)c2ccc(OC)cc2)cc1 [[^99mTcO2(DP^An-PSMAt)2]^+, metal not drawn] | blocked
2 | COCCOc1ccc(P(/C(C(=O)O)=C(/C(=O)NCCOCCOCCOCCOCCC(=O)NCCCC[C@H](NC(=O)N[C@@H](CCC(=O)O)C(=O)O)C(=O)O)P(c2ccc(OCCOC)cc2)c2ccc(OCCOC)cc2)c2ccc(OCCOC)cc2)cc1 [[^99mTcO2(DP^MEP-PSMAt)2]^+, metal not drawn] | blocked
